Assay results as given in patent US20080175888A1, “Combination Therapy Comprising Actinidia and Steroids and Uses Thereof” (priority 2005, published 2008).

Test system: production of IL-13 and IFN-γ by OVA-stimulated mouse splenocytes
Test: Cytokine production in OVA-stimulated splenocyte cultures, ELISA (Example 3)
Type: cell-based
Settings: 3 days exposure in vitro, FIG. 5A/5B
Experimental: The purpose of this study was to assess the ability of A. arguta extracts that originate from plant parts other than the fruit, or from alternative preparations of the fruit (i.e., other than the extracts described in U.S. Patent Publication No. 2004/0037909, supra), to modulate cytokine production (IL-13 and IFNγ) in splenocyte cultures derived from ovalbumin-sensitized mice, using ELISA analysis. The following samples (prepared as described above) were tested: water extracts of the stem, root, and bark of A. arguta, prepared as described in Example 1; “boiled” fresh fruit preparations; the fruit juice concentrate prepared as described in Example 1; FD001 (large scale equivalent of PG102T) prepared as described in Example 1; FD001 powder prepared as described in Example 1 (used for clinical trials described below); a room temperature water extract of the dried A. arguta fruit; the EtOAc extract prepared as described in Example 1; and aqueous remainder, also described in Example 1. In addition, the activity of three known immunosuppressive compounds, cyclosporin, dexamethasone, and quercetin were evaluated as controls.
Preparation of the splenocytes was performed in a manner identical to that described above for Example 2. […]
The cytokine levels in the culture supernatants from all treatment and control wells were determined by ELISA assay. […]

## O=c1c(O)c(-c2ccc(O)c(O)c2)oc2cc(O)cc(O)c12 [quercetin]
  concentration of potent activity (suppression of IL-13 and IFN-γ): 1 to 25 µM
